{"source": "ChEMBL document CHEMBL5463728", "about": "“Data for DCP probe BAY-6096” (2023)", "key": {"[1]": {"biological_target": "Nitric oxide synthase, inducible (Homo sapiens) (UniProt P35228)", "test": "Inhibition of Nitric Oxide Synthase, Inducible (iNOS) at compound concentration of 10.0 uM in the Eurofins-Panlabs enzyme assay (Eurofins_assay_199010)", "set-up": "substrate with concentration", "settings": "Mus musculus; Compound concentration 10.0 uM; call rule not given here"}, "[2]": {"biological_target": "Muscarinic acetylcholine receptor M3 (Homo sapiens) (UniProt P20309)", "settings": "Compound concentration 10.0 uM"}, "[3]": {"biological_target": "Mu-type opioid receptor (Homo sapiens) (UniProt P35372)", "sequence (P35372 whole entry)": "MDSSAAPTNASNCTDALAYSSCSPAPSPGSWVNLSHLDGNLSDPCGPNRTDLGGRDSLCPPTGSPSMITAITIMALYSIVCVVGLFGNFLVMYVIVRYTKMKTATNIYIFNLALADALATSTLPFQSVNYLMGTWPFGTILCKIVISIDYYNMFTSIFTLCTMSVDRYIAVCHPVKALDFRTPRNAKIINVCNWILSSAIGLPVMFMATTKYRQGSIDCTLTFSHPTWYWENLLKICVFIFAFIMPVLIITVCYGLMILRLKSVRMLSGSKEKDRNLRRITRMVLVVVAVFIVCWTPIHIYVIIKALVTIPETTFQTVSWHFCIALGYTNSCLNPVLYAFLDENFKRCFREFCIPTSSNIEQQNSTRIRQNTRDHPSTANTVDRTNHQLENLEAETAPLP", "settings": "Compound concentration 10.0 uM"}, "[4]": {"biological_target": "Progesterone receptor (Homo sapiens) (UniProt P06401)", "sequence (P06401 whole entry)": "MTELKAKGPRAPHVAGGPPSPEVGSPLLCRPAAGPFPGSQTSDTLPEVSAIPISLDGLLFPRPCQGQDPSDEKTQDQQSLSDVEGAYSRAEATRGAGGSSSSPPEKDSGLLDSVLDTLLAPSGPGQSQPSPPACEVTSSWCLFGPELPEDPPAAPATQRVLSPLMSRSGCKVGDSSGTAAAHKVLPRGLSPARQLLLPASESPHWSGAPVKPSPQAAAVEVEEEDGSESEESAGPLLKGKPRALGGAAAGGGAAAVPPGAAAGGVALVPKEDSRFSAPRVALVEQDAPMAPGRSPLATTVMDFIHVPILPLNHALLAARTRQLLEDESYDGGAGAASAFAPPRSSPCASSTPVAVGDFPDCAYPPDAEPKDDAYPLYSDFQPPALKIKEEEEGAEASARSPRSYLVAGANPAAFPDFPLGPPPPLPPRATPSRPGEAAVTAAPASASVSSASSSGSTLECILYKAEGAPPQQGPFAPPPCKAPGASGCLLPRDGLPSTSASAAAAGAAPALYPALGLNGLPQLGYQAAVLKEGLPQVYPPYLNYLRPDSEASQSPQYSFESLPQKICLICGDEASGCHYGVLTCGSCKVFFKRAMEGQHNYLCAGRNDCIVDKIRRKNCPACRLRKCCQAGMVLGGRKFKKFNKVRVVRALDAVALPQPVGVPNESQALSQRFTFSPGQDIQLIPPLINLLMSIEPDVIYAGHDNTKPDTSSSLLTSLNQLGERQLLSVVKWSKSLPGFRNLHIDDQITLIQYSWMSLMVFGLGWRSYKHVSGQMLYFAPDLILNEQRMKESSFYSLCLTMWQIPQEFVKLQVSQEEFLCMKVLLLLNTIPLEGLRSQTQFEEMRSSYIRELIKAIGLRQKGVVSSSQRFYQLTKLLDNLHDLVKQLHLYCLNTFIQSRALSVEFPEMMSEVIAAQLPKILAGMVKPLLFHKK", "settings": "Compound concentration 10.0 uM"}, "[5]": {"biological_target": "cGMP-specific 3',5'-cyclic phosphodiesterase (Homo sapiens) (UniProt O76074)", "settings": "Compound concentration 10.0 uM"}, "[6]": {"biological_target": "Endothelin receptor type B (Homo sapiens) (UniProt P24530)", "settings": "Compound concentration 10.0 uM"}, "Oryctolagus cuniculus": {"organism": "Oryctolagus cuniculus", "settings": "Compound concentration 10.0 uM"}, "[7]": {"biological_target": "B2 bradykinin receptor (Homo sapiens) (UniProt P30411)", "sequence (P30411 whole entry)": "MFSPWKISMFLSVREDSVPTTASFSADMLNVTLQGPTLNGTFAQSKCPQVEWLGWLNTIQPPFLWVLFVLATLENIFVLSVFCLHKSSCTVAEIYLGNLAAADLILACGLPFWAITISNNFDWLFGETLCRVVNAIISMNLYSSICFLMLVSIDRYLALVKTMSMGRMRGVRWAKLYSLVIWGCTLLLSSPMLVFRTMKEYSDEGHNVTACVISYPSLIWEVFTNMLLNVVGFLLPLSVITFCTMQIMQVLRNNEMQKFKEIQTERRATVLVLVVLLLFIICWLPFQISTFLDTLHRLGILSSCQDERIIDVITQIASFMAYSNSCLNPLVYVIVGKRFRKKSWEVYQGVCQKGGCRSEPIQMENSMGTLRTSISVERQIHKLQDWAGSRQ", "settings": "Compound concentration 10.0 uM"}, "[8]": {"biological_target": "Glutamate NMDA receptor (Rattus norvegicus) (UniProt P35439+Q00959+Q00960+Q00961+Q62645+Q8VHN2+Q9R1M7)", "settings": "Compound concentration 10.0 uM"}, "[9]": {"biological_target": "T1, 5-hydroxytryptamine receptor 2C (Homo sapiens) (UniProt P28335)", "T1 sequence (whole entry)": "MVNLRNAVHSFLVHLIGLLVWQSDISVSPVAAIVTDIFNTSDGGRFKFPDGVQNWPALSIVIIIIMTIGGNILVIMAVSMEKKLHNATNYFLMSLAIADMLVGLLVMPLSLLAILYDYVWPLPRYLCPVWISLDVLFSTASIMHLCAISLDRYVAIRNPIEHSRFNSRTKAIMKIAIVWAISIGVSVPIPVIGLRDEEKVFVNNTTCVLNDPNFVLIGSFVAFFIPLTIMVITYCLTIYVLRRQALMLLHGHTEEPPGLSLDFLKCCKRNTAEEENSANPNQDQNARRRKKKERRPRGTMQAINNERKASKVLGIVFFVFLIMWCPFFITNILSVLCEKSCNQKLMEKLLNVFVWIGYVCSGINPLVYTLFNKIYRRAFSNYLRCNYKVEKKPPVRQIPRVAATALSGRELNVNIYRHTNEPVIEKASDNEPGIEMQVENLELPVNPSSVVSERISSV", "settings": "Compound concentration 10.0 uM"}, "[10]": {"biological_target": "T2, Muscarinic acetylcholine receptor M2 (Homo sapiens) (UniProt P08172)", "T2 sequence (whole entry)": "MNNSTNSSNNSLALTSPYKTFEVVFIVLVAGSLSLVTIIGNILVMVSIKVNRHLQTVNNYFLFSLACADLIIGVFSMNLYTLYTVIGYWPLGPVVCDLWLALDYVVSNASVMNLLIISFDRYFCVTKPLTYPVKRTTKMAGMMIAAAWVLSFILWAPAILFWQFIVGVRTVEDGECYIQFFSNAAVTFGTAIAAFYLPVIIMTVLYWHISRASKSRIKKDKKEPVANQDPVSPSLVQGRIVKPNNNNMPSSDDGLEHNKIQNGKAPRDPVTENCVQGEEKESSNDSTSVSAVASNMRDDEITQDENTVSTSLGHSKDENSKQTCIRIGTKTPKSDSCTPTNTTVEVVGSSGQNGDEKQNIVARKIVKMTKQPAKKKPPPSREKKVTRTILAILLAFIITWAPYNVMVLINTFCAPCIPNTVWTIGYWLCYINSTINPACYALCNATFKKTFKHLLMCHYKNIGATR", "settings": "Compound concentration 10.0 uM"}, "[11]": {"biological_target": "Beta-1 adrenergic receptor (Homo sapiens, UniProt P08588)", "sequence (P08588 whole entry)": "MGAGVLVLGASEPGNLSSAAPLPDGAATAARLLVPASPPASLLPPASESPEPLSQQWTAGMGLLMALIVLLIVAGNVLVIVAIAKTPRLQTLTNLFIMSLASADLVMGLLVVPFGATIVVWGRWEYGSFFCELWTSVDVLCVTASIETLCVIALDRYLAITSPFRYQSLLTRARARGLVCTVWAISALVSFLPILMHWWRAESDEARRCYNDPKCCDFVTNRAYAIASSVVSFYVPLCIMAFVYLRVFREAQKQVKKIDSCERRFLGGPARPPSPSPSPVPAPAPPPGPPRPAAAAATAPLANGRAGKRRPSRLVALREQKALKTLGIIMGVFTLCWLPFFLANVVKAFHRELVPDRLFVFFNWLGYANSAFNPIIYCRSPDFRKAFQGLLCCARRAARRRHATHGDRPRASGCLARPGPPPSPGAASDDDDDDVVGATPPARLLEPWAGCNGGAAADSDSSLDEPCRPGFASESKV", "test": "Adrenoceptor reporter cell assay (ADRB1)", "assay_type": "functional"}, "[12]": {"biological_target": "Beta-2 adrenergic receptor (Homo sapiens, UniProt P07550)", "sequence (P07550 whole entry)": "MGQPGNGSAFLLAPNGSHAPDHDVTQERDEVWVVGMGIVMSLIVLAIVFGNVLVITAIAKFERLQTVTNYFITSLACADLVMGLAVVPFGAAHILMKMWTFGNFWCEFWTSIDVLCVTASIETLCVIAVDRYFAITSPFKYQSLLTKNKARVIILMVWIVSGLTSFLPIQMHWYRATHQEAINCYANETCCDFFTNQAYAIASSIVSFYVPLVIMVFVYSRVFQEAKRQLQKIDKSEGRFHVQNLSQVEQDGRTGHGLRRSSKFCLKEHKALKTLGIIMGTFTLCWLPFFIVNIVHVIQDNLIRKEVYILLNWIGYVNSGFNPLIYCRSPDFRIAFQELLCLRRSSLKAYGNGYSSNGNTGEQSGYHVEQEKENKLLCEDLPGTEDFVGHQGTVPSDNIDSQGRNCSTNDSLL", "test": "Adrenoceptor reporter cell assay (ADRB2)", "assay_type": "functional"}, "[13]": {"biological_target": "Acetylcholinesterase (Homo sapiens) (UniProt P22303)", "sequence (P22303 whole entry)": "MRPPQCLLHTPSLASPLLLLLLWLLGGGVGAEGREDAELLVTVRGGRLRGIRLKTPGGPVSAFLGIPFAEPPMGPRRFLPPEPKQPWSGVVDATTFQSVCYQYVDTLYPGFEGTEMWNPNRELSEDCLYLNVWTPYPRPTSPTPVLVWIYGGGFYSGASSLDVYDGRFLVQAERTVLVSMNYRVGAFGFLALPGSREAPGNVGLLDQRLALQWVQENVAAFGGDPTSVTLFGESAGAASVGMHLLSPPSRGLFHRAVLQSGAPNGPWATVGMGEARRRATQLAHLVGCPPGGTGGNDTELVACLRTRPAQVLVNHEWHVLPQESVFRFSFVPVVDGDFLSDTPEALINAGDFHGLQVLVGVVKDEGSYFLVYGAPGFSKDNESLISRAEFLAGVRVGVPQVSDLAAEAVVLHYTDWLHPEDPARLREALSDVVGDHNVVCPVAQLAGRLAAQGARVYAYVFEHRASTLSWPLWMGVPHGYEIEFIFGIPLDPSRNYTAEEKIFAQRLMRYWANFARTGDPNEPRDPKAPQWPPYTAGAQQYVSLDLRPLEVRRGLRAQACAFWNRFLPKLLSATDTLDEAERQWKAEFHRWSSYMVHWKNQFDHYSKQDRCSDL", "settings": "Compound concentration 10.0 uM"}, "D(2) dopamine receptor [14]": {"biological_target": "T3, D(2) dopamine receptor (Homo sapiens, UniProt P14416)", "T3 sequence (P14416 whole entry)": "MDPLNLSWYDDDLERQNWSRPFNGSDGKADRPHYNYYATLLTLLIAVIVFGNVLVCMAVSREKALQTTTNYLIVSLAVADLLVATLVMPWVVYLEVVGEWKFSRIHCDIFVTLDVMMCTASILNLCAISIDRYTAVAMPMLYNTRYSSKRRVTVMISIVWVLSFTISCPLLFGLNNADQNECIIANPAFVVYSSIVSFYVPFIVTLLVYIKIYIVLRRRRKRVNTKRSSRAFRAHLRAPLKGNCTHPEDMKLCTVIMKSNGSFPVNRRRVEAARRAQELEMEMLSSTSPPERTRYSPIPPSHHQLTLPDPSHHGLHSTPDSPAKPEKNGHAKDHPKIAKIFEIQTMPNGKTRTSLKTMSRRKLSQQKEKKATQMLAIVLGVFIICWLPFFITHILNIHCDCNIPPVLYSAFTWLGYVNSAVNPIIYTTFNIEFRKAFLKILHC", "settings": "Compound concentration 10.0 uM"}, "D(2) dopamine receptor [15]": {"biological_target": "T3, D(2) dopamine receptor", "settings": "Compound concentration 10.0 uM", "remark": "listed apart in the source"}, "[16]": {"biological_target": "T4, Muscarinic acetylcholine receptor M4 (Homo sapiens) (UniProt P08173)", "T4 sequence (whole entry)": "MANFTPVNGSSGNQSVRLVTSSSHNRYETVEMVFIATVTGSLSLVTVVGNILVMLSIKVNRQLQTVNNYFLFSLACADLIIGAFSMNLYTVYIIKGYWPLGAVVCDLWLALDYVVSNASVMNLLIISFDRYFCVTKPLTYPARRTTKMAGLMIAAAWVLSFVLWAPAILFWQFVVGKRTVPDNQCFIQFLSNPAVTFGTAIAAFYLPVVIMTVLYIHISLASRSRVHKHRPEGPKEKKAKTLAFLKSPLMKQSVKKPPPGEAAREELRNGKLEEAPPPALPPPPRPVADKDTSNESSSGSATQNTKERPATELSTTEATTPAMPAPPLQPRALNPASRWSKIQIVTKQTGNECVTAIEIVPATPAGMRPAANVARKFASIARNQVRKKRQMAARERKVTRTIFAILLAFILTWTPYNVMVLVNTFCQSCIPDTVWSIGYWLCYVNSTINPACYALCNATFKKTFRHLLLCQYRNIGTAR", "settings": "Compound concentration 10.0 uM"}, "[17]": {"biological_target": "Sodium-dependent dopamine transporter (Homo sapiens) (UniProt Q01959)", "sequence (Q01959 whole entry)": "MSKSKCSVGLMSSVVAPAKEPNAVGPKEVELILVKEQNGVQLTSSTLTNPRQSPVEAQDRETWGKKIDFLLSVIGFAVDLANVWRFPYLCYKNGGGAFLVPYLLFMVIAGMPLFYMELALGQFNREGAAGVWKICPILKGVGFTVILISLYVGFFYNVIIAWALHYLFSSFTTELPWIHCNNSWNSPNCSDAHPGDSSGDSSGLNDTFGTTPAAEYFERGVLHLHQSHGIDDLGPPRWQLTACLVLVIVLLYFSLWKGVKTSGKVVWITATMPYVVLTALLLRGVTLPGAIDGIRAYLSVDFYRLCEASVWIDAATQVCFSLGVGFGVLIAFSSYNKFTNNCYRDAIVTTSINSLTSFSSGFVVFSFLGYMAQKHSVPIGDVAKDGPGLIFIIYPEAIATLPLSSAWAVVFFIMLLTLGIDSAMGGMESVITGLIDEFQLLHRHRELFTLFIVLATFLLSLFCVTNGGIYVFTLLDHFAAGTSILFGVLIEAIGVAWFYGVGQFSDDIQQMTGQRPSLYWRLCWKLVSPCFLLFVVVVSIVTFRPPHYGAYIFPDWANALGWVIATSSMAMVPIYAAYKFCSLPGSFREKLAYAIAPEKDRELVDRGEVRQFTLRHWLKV", "settings": "Compound concentration 10.0 uM"}, "[18]": {"biological_target": "D(1B) dopamine receptor (Homo sapiens) (UniProt P21918)", "sequence (P21918 whole entry)": "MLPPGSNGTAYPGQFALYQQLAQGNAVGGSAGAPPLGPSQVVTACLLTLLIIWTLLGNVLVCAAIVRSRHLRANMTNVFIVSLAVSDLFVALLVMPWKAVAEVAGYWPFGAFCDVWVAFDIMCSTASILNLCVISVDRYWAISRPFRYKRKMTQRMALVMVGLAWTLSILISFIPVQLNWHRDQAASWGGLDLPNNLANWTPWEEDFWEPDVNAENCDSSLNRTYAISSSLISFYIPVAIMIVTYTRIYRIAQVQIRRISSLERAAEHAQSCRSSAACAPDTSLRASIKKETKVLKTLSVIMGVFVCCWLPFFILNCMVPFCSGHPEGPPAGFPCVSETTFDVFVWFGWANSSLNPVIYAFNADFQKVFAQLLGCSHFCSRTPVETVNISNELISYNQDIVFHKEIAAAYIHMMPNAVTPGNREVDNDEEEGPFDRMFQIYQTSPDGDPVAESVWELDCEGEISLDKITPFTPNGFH", "settings": "Compound concentration 10.0 uM"}, "[19]": {"biological_target": "T5, Alpha-2B adrenergic receptor (Homo sapiens, UniProt P18089)", "T5 sequence (P18089 whole entry)": "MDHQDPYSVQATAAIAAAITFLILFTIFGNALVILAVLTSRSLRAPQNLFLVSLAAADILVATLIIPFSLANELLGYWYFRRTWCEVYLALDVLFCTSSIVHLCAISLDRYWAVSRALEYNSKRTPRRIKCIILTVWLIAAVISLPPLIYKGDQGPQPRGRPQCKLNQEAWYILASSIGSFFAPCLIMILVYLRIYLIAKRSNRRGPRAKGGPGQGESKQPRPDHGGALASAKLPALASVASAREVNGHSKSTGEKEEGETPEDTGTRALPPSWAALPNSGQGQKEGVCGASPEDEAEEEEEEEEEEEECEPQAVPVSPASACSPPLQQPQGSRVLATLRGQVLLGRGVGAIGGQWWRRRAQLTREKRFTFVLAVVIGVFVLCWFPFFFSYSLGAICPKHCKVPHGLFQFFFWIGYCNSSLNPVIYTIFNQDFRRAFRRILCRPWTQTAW", "test": "GPCRScan assay: inhibition of Alpha2B", "set-up": "radioligand conc. used [nm] 1.5 – 2.0, parental cells HEKT"}}, "data": [{"smiles": "CNc1cc[n+](CCNC(=O)c2ccn3c(-c4c(C)noc4C)cnc3c2)cc1", "values": [{"measurement": "inhibition", "setting": "[1]", "result": 6.3, "unit": "%"}, {"measurement": "inhibition", "setting": "[2]", "result": -0.2, "unit": "%"}, {"measurement": "inhibition", "setting": "[3]", "result": 0.1, "unit": "%"}, {"measurement": "inhibition", "setting": "[4]", "result": 11.8, "unit": "%"}, {"measurement": "inhibition", "setting": "[5]", "result": 3.6, "unit": "%"}, {"measurement": "inhibition", "setting": "[6]", "result": -2.3, "unit": "%"}, {"measurement": "inhibition", "setting": "Oryctolagus cuniculus", "result": -7.5, "unit": "%"}, {"measurement": "inhibition", "setting": "[7]", "result": -1.8, "unit": "%"}, {"measurement": "inhibition", "setting": "[8]", "result": 4, "unit": "%"}, {"measurement": "inhibition", "setting": "[9]", "result": 0.5, "unit": "%"}, {"measurement": "inhibition", "setting": "[10]", "result": 6.4, "unit": "%"}, {"measurement": "IC50", "setting": "[11]", "result": "> 10 µM (not active)"}, {"measurement": "IC50", "setting": "[12]", "result": "> 10 µM (not active)"}, {"measurement": "inhibition", "setting": "[13]", "result": 14.8, "unit": "%"}, {"measurement": "inhibition", "setting": "D(2) dopamine receptor [14]", "result": -1.6, "unit": "%"}, {"measurement": "inhibition", "setting": "D(2) dopamine receptor [15]", "result": -5.2, "unit": "%"}, {"measurement": "inhibition", "setting": "[16]", "result": 3.5, "unit": "%"}]}, {"smiles": "Cc1noc(C)c1-c1cnc2cc(C(=O)NCCC[n+]3ccc(N(C)C)cc3)ccn12", "values": [{"measurement": "inhibition", "setting": "[17]", "result": -3.28, "unit": "%"}, {"measurement": "inhibition", "setting": "[18]", "result": 0.03, "unit": "%"}, {"measurement": "Ki", "setting": "[19]; read-out: Ki", "result": 2.76, "unit": "µM"}, {"measurement": "Ki", "setting": "[19]; read-out: pKi (converted)", "result": 2.51, "unit": "µM"}]}]}
